Data reported in paper PMC8940841, “A metabolically stable PET tracer for imaging synaptic vesicle protein 2A: synthesis and preclinical characterization of [^18F]SDM-16” (European Journal of Nuclear Medicine and Molecular Imaging, 2021).
Like-named read-outs stand apart in the source and are kept apart here.

What was measured:
[1] = Radiation dosimetry from whole-body PET biodistribution; format: in vivo, rhesus monkeys; details: for maximum permissible single-study dosage: urinary bladder wall critical organ, 21 CFR 361.1
Protocol: Two whole-body biodistribution studies were performed in two rhesus monkeys (9.4 kg female and 17.0 kg male) to estimate human organ radiation dosimetry. Scans were carried out on a Biograph mCT (hybrid PET/CT, Siemens Medical Systems, Knoxville, TN) scanner following i.v. injections of 187.6 MBq (5.1 mCi) and 173.9 MBq (4.7 mCi) [^18F]SDM-16, and mass doses of 0.27 µg and 0.24 µg at time of injection, respectively. Monkeys were scanned for about 4 h in a sequence of 22–24 passes from top of the head to the mid-thigh. Scans were reconstructed and visually inspected for organ activity concentrations exceeding background level. The organs included were the brain, heart, liver, gall bladder, spleen, kidneys, and urinary bladder contents. Regions of interest were delineated on these organs, and mean activity values were computed to form TACs.
Within-pass decay correction was removed to reflect the actual activity in each organ, and cumulative activity (Bq^.h/cm^3) computed by integration of the data from the scan. The tail portions beyond the end of the scan were extrapolated assuming only physical decay of the tracer. These values were multiplied by the organ volumes of a standard 55-kg adult female reference and 70-kg adult male mathematical phantom, and then normalized to injected activity to obtain organ residence times (N, h). Final values were then entered into the OLINDA software to obtain absorbed doses in all organs, which were computed with different voiding assumptions.

[2] = Free base fraction in plasma by modified Henderson-Hasselbalch equation (Eq. 1); details: Eq. 1, plasma pH 7.4
[3] = LEV blocking and displacement PET scans, Lassen plot; format: in vivo, rhesus monkeys (Macaca mulatta); details: male, rhesus monkey, intravenous
Description: Four monkeys were studied.
To examine the in vivo binding specificity, SV2A occupancy, and the extent of nonspecific binding in the monkey brain, we performed the Lassen plot analysis using data from the two baseline scans and one blocking scan in the same monkey.

- total ED of a single-study dosage ([1]; 185 MBq (5 mCi)): 3.9 mSv
- mean organ radiation dose estimate ([1]; Adrenals, adult female phantom): 0.0157 mGv/MBq
- mean organ radiation dose estimate ([1]; Adrenals, adult male phantom): 0.0135 mGv/MBq
- mean organ radiation dose estimate ([1]; Brain, adult female phantom): 0.1032 mGv/MBq
- mean organ radiation dose estimate ([1]; Brain, adult male phantom): 0.0732 mGv/MBq
- mean organ radiation dose estimate ([1]; Breasts, adult female phantom): 0.0087 mGv/MBq
- mean organ radiation dose estimate ([1]; Breasts, adult male phantom): 0.0073 mGv/MBq
- average residence time N ([1]; Gall Bladder, Female): 0.015 h
- average residence time N ([1]; Gall Bladder, Male): 0.021 h
- mean organ radiation dose estimate ([1]; Gallbladder Wall, adult female phantom): 0.0441 mGv/MBq
- mean organ radiation dose estimate ([1]; Gallbladder Wall, adult male phantom): 0.0484 mGv/MBq
- mean organ radiation dose estimate ([1]; Heart Wall, adult female phantom): 0.0158 mGv/MBq
- mean organ radiation dose estimate ([1]; Heart Wall, adult male phantom): 0.0137 mGv/MBq
- average residence time N ([1]; Heart, Female): 0.015 h
- average residence time N ([1]; Heart, Male): 0.017 h
- mean organ radiation dose estimate ([1]; Kidneys, adult female phantom): 0.0454 mGv/MBq
- mean organ radiation dose estimate ([1]; Kidneys, adult male phantom): 0.0478 mGv/MBq
- mean organ radiation dose estimate ([1]; LLI Wall, adult female phantom): 0.0145 mGv/MBq
- mean organ radiation dose estimate ([1]; LLI Wall, adult male phantom): 0.0114 mGv/MBq
- mean organ radiation dose estimate ([1]; Liver, adult female phantom): 0.0538 mGv/MBq
- mean organ radiation dose estimate ([1]; Liver, adult male phantom): 0.0454 mGv/MBq
- mean organ radiation dose estimate ([1]; Lungs, adult female phantom): 0.0116 mGv/MBq
- mean organ radiation dose estimate ([1]; Lungs, adult male phantom): 0.0096 mGv/MBq
- mean organ radiation dose estimate ([1]; Muscle, adult female phantom): 0.0110 mGv/MBq
- mean organ radiation dose estimate ([1]; Muscle, adult male phantom): 0.0093 mGv/MBq
- mean organ radiation dose estimate ([1]; Osteogenic Cells, adult female phantom): 0.0188 mGv/MBq
- mean organ radiation dose estimate ([1]; Osteogenic Cells, adult male phantom): 0.0147 mGv/MBq
- mean organ radiation dose estimate ([1]; Ovaries, adult female phantom): 0.0147 mGv/MBq
- mean organ radiation dose estimate ([1]; Pancreas, adult female phantom): 0.0154 mGv/MBq
- mean organ radiation dose estimate ([1]; Pancreas, adult male phantom): 0.0134 mGv/MBq
- mean organ radiation dose estimate ([1]; Red Marrow, adult female phantom): 0.0120 mGv/MBq
- mean organ radiation dose estimate ([1]; Red Marrow, adult male phantom): 0.0098 mGv/MBq
- average residence time N ([1]; Remainder, Female): 1.504 h
- average residence time N ([1]; Remainder, Male): 1.608 h
- mean organ radiation dose estimate ([1]; Skin, adult female phantom): 0.0087 mGv/MBq
- mean organ radiation dose estimate ([1]; Skin, adult male phantom): 0.0073 mGv/MBq
- mean organ radiation dose estimate ([1]; Small Intestine, adult female phantom): 0.0130 mGv/MBq
- mean organ radiation dose estimate ([1]; Small Intestine, adult male phantom): 0.0116 mGv/MBq
- mean organ radiation dose estimate ([1]; Spleen, adult female phantom): 0.0122 mGv/MBq
- mean organ radiation dose estimate ([1]; Spleen, adult male phantom): 0.0104 mGv/MBq
- mean organ radiation dose estimate ([1]; Stomach Wall, adult female phantom): 0.0125 mGv/MBq
- mean organ radiation dose estimate ([1]; Stomach Wall, adult male phantom): 0.0107 mGv/MBq
- average residence time N ([1]; Sum, Female): 2.621 h
- average residence time N ([1]; Sum, Male): 2.621 h
- mean organ radiation dose estimate ([1]; Testes, adult male phantom): 0.0090 mGv/MBq
- mean organ radiation dose estimate ([1]; Thymus, adult female phantom): 0.0107 mGv/MBq
- mean organ radiation dose estimate ([1]; Thymus, adult male phantom): 0.0089 mGv/MBq
- mean organ radiation dose estimate ([1]; Thyroid, adult female phantom): 0.0101 mGv/MBq
- mean organ radiation dose estimate ([1]; Thyroid, adult male phantom): 0.0098 mGv/MBq
- mean organ radiation dose estimate ([1]; Total Body, adult female phantom): 0.0146 mGv/MBq
- mean organ radiation dose estimate ([1]; Total Body, adult male phantom): 0.0119 mGv/MBq
- mean organ radiation dose estimate ([1]; ULI Wall, adult female phantom): 0.0141 mGv/MBq
- mean organ radiation dose estimate ([1]; ULI Wall, adult male phantom): 0.0119 mGv/MBq
- mean organ radiation dose estimate ([1]; Urinary Bladder Wall, adult female phantom): 0.1368 mGv/MBq
- mean organ radiation dose estimate ([1]; Urinary Bladder Wall, adult male phantom): 0.0762 mGv/MBq
- average residence time N ([1]; Urinary Bladder, Female): 0.193 h
- average residence time N ([1]; Urinary Bladder, Male): 0.143 h
- mean organ radiation dose estimate ([1]; Uterus, adult female phantom): 0.0180 mGv/MBq
- Effective Dose ([1]; adult female phantom): 0.0211 mGv/MBq
- Effective Dose Equivalent ([1]; adult female phantom): 0.0316 mGv/MBq
- Effective Dose ([1]; adult male phantom): 0.0156 mGv/MBq
- Effective Dose Equivalent ([1]; adult male phantom): 0.0246 mGv/MBq
- absorbed dose ([1]; brain, female): 0.1032 mGy/MBq
- average residence time N ([1]; brain, female): 0.532 h
- absorbed dose ([1]; brain, male): 0.0732 mGy/MBq
- average residence time N ([1]; brain, male): 0.430 h
- effective dose (ED) ([1]; female): 21.1 µSv/MBq
- maximum permissible single-study dosage ([1]; female): 365.6 MBq
- absorbed dose ([1]; gallbladder wall, female): 0.0441 mGy/MBq
- absorbed dose ([1]; gallbladder wall, male): 0.0484 mGy/MBq
- absorbed dose ([1]; kidneys, female): 0.0454 mGy/MBq
- average residence time N ([1]; kidneys, female): 0.057 h
- absorbed dose ([1]; kidneys, male): 0.0478 mGy/MBq
- average residence time N ([1]; kidneys, male): 0.067 h
- absorbed dose ([1]; liver, female): 0.0538 mGy/MBq
- average residence time N ([1]; liver, female): 0.305 h
- absorbed dose ([1]; liver, male): 0.0454 mGy/MBq
- average residence time N ([1]; liver, male): 0.335 h
- effective dose (ED) ([1]; male): 15.6 µSv/MBq
- maximum permissible single-study dosage ([1]; male): 656.0 MBq
- absorbed dose ([1]; urinary bladder wall, female): 0.1368 mGy/MBq
- absorbed dose ([1]; urinary bladder wall, male): 0.0762 mGy/MBq
- fraction present in plasma as free base [2]: 30%
- Kp ([3]; brain (caudate), Caudate, LEV 30 mg/kg i.v., read-out: VT (blocking)): 7.7
- Kp ([3]; brain (putamen), Putamen, LEV 30 mg/kg i.v., read-out: VT (blocking)): 8.8
- Kp ([3]; brain (thalamus), Thalamus, LEV 30 mg/kg i.v., read-out: VT (blocking)): 8.2
- Kp ([3]; brain, Lassen plot, read-out: VND): 2.54
SMILES: Cc1nccn1CN1C[C@@H](c2cc(F)cc([18F])c2)CC1=O [[^18F]SDM-16, (R)-4-(3-fluoro-5-(fluoro-^18F)phenyl)-1-((2-methyl-1H-imidazol-1-yl)methyl)pyrrolidin-2-one]
- regional BPND range, CS as reference region (SV2A): 0.69-3.90
- regional BPND range, VND method (SV2A): 2.9-15.1
- BPND, VND method (SV2A; Amygdala): 2.92 ± 0.25
- BPND, VT(CS) method (SV2A; Amygdala): 0.69 ± 0.23
- BPND, VND method (SV2A; Anterior cingulate): 15.13 ± 4.21
- BPND, VT(CS) method (SV2A; Anterior cingulate): 3.90 ± 1.38
- BPND, VND method (SV2A; Brainstem): 4.93 ± 0.15
- BPND, VT(CS) method (SV2A; Brainstem): 1.14 ± 0.24
- BPND, VND method (SV2A; Caudate): 8.76 ± 0.68
- BPND, VT(CS) method (SV2A; Caudate): 2.27 ± 0.68
- BPND, VND method (SV2A; Cerebellum): 9.47 ± 0.65
- BPND, VT(CS) method (SV2A; Cerebellum): 2.28 ± 0.53
- BPND, VND method (SV2A; Cingulate cortex): 14.97 ± 0.28
- BPND, VT(CS) method (SV2A; Cingulate cortex): 3.77 ± 1.28
- BPND, VND method (SV2A; Frontal cortex): 12.72 ± 0.76
- BPND, VT(CS) method (SV2A; Frontal cortex): 3.24 ± 1.07
- BPND, VND method (SV2A; Globus pallidus): 6.60 ± 0.33
- BPND, VT(CS) method (SV2A; Globus pallidus): 1.61 ± 0.42
- BPND ratio [^18F]SDM-16/[^11C]UCB-J (SV2A; Guo plot): 1.41
- BPND ratio [^18F]SDM-16/[^18F]SynVesT-1 (SV2A; Guo plot): 0.99
- BPND, VND method (SV2A; Hippocampus): 6.55 ± 0.97
- BPND, VT(CS) method (SV2A; Hippocampus): 1.72 ± 0.44
- BPND, VND method (SV2A; Insular cortex): 13.77 ± 1.93
- BPND, VT(CS) method (SV2A; Insular cortex): 3.54 ± 1.31
- BPND, VND method (SV2A; Nucleus accumbens): 14.51 ± 0.23
- BPND, VT(CS) method (SV2A; Nucleus accumbens): 3.48 ± 1.35
- BPND, VND method (SV2A; Occipital cortex): 12.62 ± 1.09
- BPND, VT(CS) method (SV2A; Occipital cortex): 3.49 ± 0.90
- BPND, VND method (SV2A; Putamen): 11.50 ± 0.8
- BPND, VT(CS) method (SV2A; Putamen): 3.00 ± 1.00
- BPND, VND method (SV2A; Temporal cortex): 12.06 ± 0.54
- BPND, VT(CS) method (SV2A; Temporal cortex): 3.15 ± 0.52
- BPND, VND method (SV2A; Thalamus): 9.46 ± 0.19
- BPND, VT(CS) method (SV2A; Thalamus): 2.29 ± 0.72
- BPND with CS VT lower than BPND with VND (SV2A; average): 67%
